Where “and” joins values, the source holds several entries; their conditions need not be identical. Identical values can stand only once. Inconclusive results and toxic doses are left out. No stated cut-off is given here; in the data, active means T/C of 150% or more; inactive means T/C below 125%.
Tested on: L1210 leukemia ip in BDF1 mice, survival T/C
Experiment: NCI In Vivo Anticancer Drug Screen. Data for tumor model L1210 Leukemia (intraperitoneal) in B6D2F1 (BDF1) mice
Conditions: endpoint: mean survival time, higher = longer survival
Outline: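 Tumor was transplanted into mice, which were then dosed with test compound or vehicle alone. Survival was recorded for each group, and the treated figure was expressed relative to the control figure.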

[1] = dose: 100.0 mg/kg/injection, schedule: Q01DX009 (ip), vehicle: saline with Tween-80
[2] = dose: 100.0 mg/kg/injection, schedule: Q04DX003 (ip), vehicle: saline with Tween-80
[3] = dose: 200.0 mg/kg/injection, schedule: Q01DX009 (ip), vehicle: saline with Tween-80
[4] = dose: 200.0 mg/kg/injection, schedule: Q04DX003 (ip), vehicle: saline with Tween-80
[5] = dose: 100.0 mg/kg/injection, schedule: Q04DX003 (ip), vehicle: Klucel (hydroxypropylcellulose) (HPC)
[6] = dose: 200.0 mg/kg/injection, schedule: Q04DX003 (ip), vehicle: Klucel (hydroxypropylcellulose) (HPC)
[7] = dose: 400.0 mg/kg/injection, schedule: Q04DX003 (ip), vehicle: Klucel (hydroxypropylcellulose) (HPC)
[8] = dose: 400.0 mg/kg/injection, schedule: Q04DX003 (ip), vehicle: saline with Tween-80
[9] = dose: 100.0 mg/kg/injection, schedule: Q01DX001 (ip), vehicle: saline
[10] = dose: 100.0 mg/kg/injection, schedule: Q01DX009 (ip), vehicle: Klucel (hydroxypropylcellulose) (HPC)
[11] = dose: 200.0 mg/kg/injection, schedule: Q01DX009 (ip), vehicle: Klucel (hydroxypropylcellulose) (HPC)
[12] = dose: 400.0 mg/kg/injection, schedule: Q01DX009 (ip), vehicle: Klucel (hydroxypropylcellulose) (HPC)

Measured: T/C

CC(C)=NN=C(N)N
inactive: dose: 15.0 mg/kg/injection, schedule: Q01DX Z (ip), vehicle: carboxymethylcellulose (CMC) 100 % of control | dose: 15.0 mg/kg/injection, schedule: Q01DX Z (ip), vehicle: saline 107 % of control | dose: 30.0 mg/kg/injection, schedule: Q01DX Z (ip), vehicle: carboxymethylcellulose (CMC) 101 % of control | dose: 30.0 mg/kg/injection, schedule: Q01DX Z (ip), vehicle: saline 101 % of control | dose: 60.0 mg/kg/injection, schedule: Q01DX Z (ip), vehicle: carboxymethylcellulose (CMC) 96 % of control and 106 % of control | dose: 60.0 mg/kg/injection, schedule: Q01DX Z (ip), vehicle: saline 95 % of control | dose: 60.0 mg/kg/injection, schedule: Q01DX Z (oral), vehicle: saline 92 % of control | dose: 120.0 mg/kg/injection, schedule: Q01DX Z (ip), vehicle: carboxymethylcellulose (CMC) 93 % of control and 95 % of control | dose: 120.0 mg/kg/injection, schedule: Q01DX Z (ip), vehicle: saline 95 % of control | dose: 120.0 mg/kg/injection, schedule: Q01DX Z (oral), vehicle: carboxymethylcellulose (CMC) 106 % of control | dose: 120.0 mg/kg/injection, schedule: Q01DX Z (oral), vehicle: saline 109 % of control | dose: 240.0 mg/kg/injection, schedule: Q01DX Z (ip), vehicle: carboxymethylcellulose (CMC) 101 % of control | dose: 240.0 mg/kg/injection, schedule: Q01DX Z (ip), vehicle: saline 88 % of control | dose: 240.0 mg/kg/injection, schedule: Q01DX Z (oral), vehicle: carboxymethylcellulose (CMC) 102 % of control | dose: 240.0 mg/kg/injection, schedule: Q01DX Z (oral), vehicle: saline 97 % of control | dose: 480.0 mg/kg/injection, schedule: Q01DX Z (oral), vehicle: carboxymethylcellulose (CMC) 116 % of control | dose: 480.0 mg/kg/injection, schedule: Q01DX Z (oral), vehicle: saline 92 % of control

Cc1nc2ccccc2nc1N1CCCC1
inactive: dose: 111.0 mg/kg/injection, schedule: Q01DX Z (ip), vehicle: methylcellulose (MC) 101 % of control | dose: 166.0 mg/kg/injection, schedule: Q01DX Z (ip), vehicle: methylcellulose (MC) 92 % of control | dose: 250.0 mg/kg/injection, schedule: Q01DX Z (ip), vehicle: methylcellulose (MC) 114 % of control

Nc1ccc(S(=O)(=O)c2ccc(NCC(=O)O)cc2)cc1
inactive: dose: 50.0 mg/kg/injection, schedule: Q01DX009 (ip), vehicle: saline with Tween-80 105 % of control | [1] 101 % of control | [2] 89 % of control | [3] 92 % of control | [4] 92 % of control

COc1cccc(/C=N/Nc2nnc(N/N=C/c3cccc(OC)c3)c3ccccc23)c1
inactive: dose: 50.0 mg/kg/injection, schedule: Q01DX001 (ip), vehicle: carboxymethylcellulose (CMC) 101 % of control | dose: 100.0 mg/kg/injection, schedule: Q01DX001 (ip), vehicle: carboxymethylcellulose (CMC) 107 % of control | dose: 200.0 mg/kg/injection, schedule: Q01DX001 (ip), vehicle: carboxymethylcellulose (CMC) 103 % of control

O=C1C=CC(=O)N1c1ccc(Br)c(Cl)c1
inactive: dose: 12.5 mg/kg/injection, schedule: Q04DX002 (ip), vehicle: other 121 % of control | dose: 25.0 mg/kg/injection, schedule: Q04DX002 (ip), vehicle: other 105 % of control | dose: 50.0 mg/kg/injection, schedule: Q04DX002 (ip), vehicle: other 112 % of control

CCCCCCCCCCC(=O)CC
inactive: [1] 102 % of control | [3] 104 % of control | dose: 400.0 mg/kg/injection, schedule: Q01DX009 (ip), vehicle: saline with Tween-80 113 % of control

CNC(C)c1ccc(C)cc1 (stereo not drawn)
inactive: dose: 6.25 mg/kg/injection, schedule: Q01DX009 (ip), vehicle: saline 123 % of control | dose: 12.5 mg/kg/injection, schedule: Q01DX009 (ip), vehicle: saline 95 % of control | dose: 25.0 mg/kg/injection, schedule: Q01DX009 (ip), vehicle: saline 100 % of control

C[Si](C)(C#CC1(O)CCCCC1)CCl
inactive: [5] 107 % of control | [6] 106 % of control | [7] 103 % of control

O=C1Nc2c(ccc3ccccc23)/C1=C/c1ccccc1
inactive: [2] 100 % of control | [4] 100 % of control | [8] 97 % of control

COc1cc([N+](=O)[O-])c(C)cc1Br
inactive: [9] 105 % of control | dose: 100.0 mg/kg/injection, schedule: Q04DX003 (ip), vehicle: acetone 98 % of control | dose: 200.0 mg/kg/injection, schedule: Q01DX001 (ip), vehicle: saline 107 % of control | dose: 200.0 mg/kg/injection, schedule: Q04DX003 (ip), vehicle: acetone 100 % of control | dose: 400.0 mg/kg/injection, schedule: Q01DX001 (ip), vehicle: saline 107 % of control | dose: 400.0 mg/kg/injection, schedule: Q04DX003 (ip), vehicle: acetone 95 % of control

Nc1ccc2c(O)c(N=Nc3ccc4c(O)cc(S(=O)(=O)O)cc4c3)c(S(=O)(=O)O)cc2c1
inactive: [10] 100 % of control | dose: 100.0 mg/kg/injection, schedule: Q04DX003 (ip), vehicle: saline 96 % of control | [11] 112 % of control | dose: 200.0 mg/kg/injection, schedule: Q04DX003 (ip), vehicle: saline 100 % of control | [12] 88 % of control | dose: 400.0 mg/kg/injection, schedule: Q04DX003 (ip), vehicle: saline 94 % of control

O=c1ccc2c(COc3ccc(Cl)cc3Cl)c3ccc(O)cc3oc-2c1
inactive: [5] 99 % of control | [6] 99 % of control

c1ccc([Si](C[CH2][Sn]([c]2ccccc2)([c]2ccccc2)[c]2ccccc2)(c2ccccc2)c2ccc([Si](C[CH2][Sn]([c]3ccccc3)([c]3ccccc3)[c]3ccccc3)(c3ccccc3)c3ccccc3)cc2)cc1
inactive: [2] 100 % of control | [4] 96 % of control | [8] 96 % of control

CCC(c1ccc(OC)cc1)C(CC)c1ccc(OCCN2CCCC2)cc1 (stereo not drawn)
inactive: dose: 12.5 mg/kg/injection, schedule: Q01DX001 (ip), vehicle: saline 94 % of control | dose: 25.0 mg/kg/injection, schedule: Q01DX001 (ip), vehicle: saline 94 % of control | dose: 50.0 mg/kg/injection, schedule: Q01DX001 (ip), vehicle: saline 95 % of control | [9] 97 % of control

CN(Cc1ccc(Cl)cc1)C(=O)Nc1cccc(C(F)(F)F)c1
inactive: dose: 25.0 mg/kg/injection, schedule: Q01DX009 (ip), vehicle: Klucel (hydroxypropylcellulose) (HPC) 96 % of control | dose: 50.0 mg/kg/injection, schedule: Q01DX009 (ip), vehicle: Klucel (hydroxypropylcellulose) (HPC) 100 % of control | [10] 100 % of control and 90 % of control | [12] 88 % of control

CCN(CC)COC(=O)C(C)(C)C
inactive: dose: 75.0 mg/kg/injection, schedule: Q01DX001 (ip), vehicle: carboxymethylcellulose (CMC) 103 % of control | dose: 150.0 mg/kg/injection, schedule: Q01DX001 (ip), vehicle: carboxymethylcellulose (CMC) 94 % of control

COc1ccc2c(c1C)OC(C)C2=O (stereo not drawn)
inactive: [10] 93 % of control | [5] 101 % of control | [11] 92 % of control | [6] 104 % of control | [12] 104 % of control | [7] 97 % of control

CN(C)C1CCC(Nc2nc(Nc3cc(Cl)cc(Cl)c3)nc3ccccc23)CC1 (stereo not drawn)
inactive: dose: 100.0 mg/kg/injection, schedule: Q01DX001 (ip), vehicle: saline with Tween-80 95 % of control

Cc1ccc(/C(=C\c2ccccc2)C(=O)c2ccccc2)cc1
inactive: [10] 95 % of control | [5] 93 % of control | [11] 92 % of control | [6] 93 % of control | [12] 95 % of control | [7] 101 % of control

From PubChem BioAssay AID248 (DTP/NCI, 2004)
